The record followed here is ChEMBL document CHEMBL4419165, “Fibcd1 for the prevention and treatment of diseases” (2014).

SMILES strings stand for the structures. Activity calls are given as the source filed them. The rule behind the calls is not given here.

Test [1] has as its target T1, Fibrinogen C domain-containing protein 1 (Homo sapiens) (UniProt Q8N539).
T1 sequence (whole entry): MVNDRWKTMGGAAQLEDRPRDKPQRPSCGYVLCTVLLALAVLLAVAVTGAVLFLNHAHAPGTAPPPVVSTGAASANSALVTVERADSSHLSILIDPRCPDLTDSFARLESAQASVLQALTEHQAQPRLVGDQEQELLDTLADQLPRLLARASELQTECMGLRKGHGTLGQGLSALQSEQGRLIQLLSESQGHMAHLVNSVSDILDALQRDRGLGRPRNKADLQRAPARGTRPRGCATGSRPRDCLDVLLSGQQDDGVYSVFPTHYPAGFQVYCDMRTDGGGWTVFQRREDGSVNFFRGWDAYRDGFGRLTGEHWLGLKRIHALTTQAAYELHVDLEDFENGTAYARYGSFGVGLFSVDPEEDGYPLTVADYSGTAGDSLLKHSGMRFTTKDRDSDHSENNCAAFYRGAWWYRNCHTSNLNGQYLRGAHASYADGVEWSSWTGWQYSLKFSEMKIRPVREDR
As to the kind of experiment: Binding affinity to V5-His tagged FIBCD1 ecto-domain (54 to 461 residues) (unknown origin) assessed as reduction in binding between FIBCD1 and acetylated BSA at 50 mM by ELISA relative to control.

In test [2] the target is T1, Fibrinogen C domain-containing protein 1 (Homo sapiens). As to the kind of experiment: Binding affinity to V5-His tagged FIBCD1 ecto-domain (54 to 461 residues) (unknown origin) expressed in HEK293 cells assessed as reduction in binding between FIBCD1 and acetylated BSA by ELISA. The test is classed as cell-based.
The target is the same in test [3]. The test can be described thus: Binding affinity to V5-His tagged FIBCD1 ecto-domain (54 to 461 residues) (unknown origin) assessed as reduction in binding between FIBCD1 and acetylated BSA by ELISA relative to control. (In general: In an ELISA, binding on a coated surface is turned into a signal by an enzyme label.)
The target is the same in test [4]. As to the kind of experiment: Binding affinity to V5-His tagged FIBCD1 ecto-domain (54 to 461 residues) (unknown origin) expressed in CHO cells assessed as reduction in endocytosis of [125I]Acetylated BSA by measuring degraded acetylated BSA level measured up to 4 hrs. The test is classed as cell-based.

The inhibition is the change of the read-out against control, counted positive when it falls. Regarding `OC[C@H]1OC(O)[C@@H](O)[C@@H](O)[C@@H]1O` (stereo not given in full), the inhibition in test [1] is under 50%. Besides, the I50 result in test [2] is “inactive”.

`OC[C@H]1OC(O)[C@H](O)[C@@H](O)[C@@H]1O` (stereo not given in full): in test [1], the inhibition is under 50%. Moreover, the I50 result in test [2] was “inactive”.

For the molecule `CC(=O)OCC[N+](C)(C)C`, the Ratio in test [3] amounted to 0.2.

As to `N[C@H]1[C@H]([C@H](O)[C@H](O)CO)OC(O)(C(=O)O)C[C@@H]1O` (stereo not given in full), in test [3], the Ratio stood at 1.

Turning to `CC(=O)O`, in test [3], the Ratio is 0.7.

As for `CCC(=O)O`, the inhibition in test [1] was under 50%. Further, in test [2], the I50 entry is “inactive”.

With `CC(=O)N[C@@H]1[C@@H](O)[C@@H](O)[C@@H](CO)O[C@@H]1O`, in test [3], the Ratio worked out at 0.4.

In the case of `CCN(CC)CCCC(C)Nc1ccnc2cc(Cl)ccc12` (stereo not given), the outcome in test [4] was Active.

Regarding `O=C[C@H](O)[C@@H](O)[C@@H](O)[C@H](O)CO`, the inhibition in test [1] was under 50%. The I50 result in test [2] is “inactive”.

`CCCC(=O)O`: the inhibition in test [1] is under 50%. Also, in test [2], the I50 result was “inactive”.
